Consider two compounds from US5607836A, “Methods of detecting compounds which bind to the P2U receptor” (The Curators of the University of Missouri, priority 1995, dated 1997).

As a reminder, the EC50 is the concentration needed to bring the measured effect to its halfway point.

One experiment has as its target murine P2U receptor (Mus musculus, UniProt P35383). Details: host or cells: Xenopus oocytes. As to conditions: Lustig et al. 1993, cited from earlier work; for EC50: Xenopus oocytes, read-out: EC50 in Xenopus oocytes expressing the P2U receptor; for activation of the cloned murine receptor: background.
The target in the next experiment is human P2U receptor (Homo sapiens, UniProt P41231). Briefly: intracellular calcium by fura-2 fluorescence in 1321N1 human astrocytoma cells expressing the cloned HP2U (LHP2USN). It counts as cell-based. To be noted: for [Ca^2+ ]i in absence of extracellular Ca^2+: HP2U-1321N1 cells. The method, then: (§1) Heteroloqous Expression. A retroviral vector-containing plasmid, pLHP2USN, was constructed by insertion of the cloned CF/T43 cDNA into the EcoRI and XhoI sites of pLXSN (A. Miller and G. Rosman, Biotechniques 7, 980 (1989)). An amphotrophic packaging cell line, PA317, was used to produce the LHP2USN retroviral vector and a control vector containing Neor only (LSN). Clonal human astrocytoma cells 1321N1, UNC strain, generously provided by T. K. Harden (UNC, Chapel Hill, N.C.), were plated at 150,000 cells per 60-mm dish and infected with LHP2USN or LSN (2 hr, 4 ug/ml Polybrene) and after 48 hr selected with 600 ug/ml G418 (Life Technologies, Inc., Gaithersburg, Md., U.S.A.). To assay for receptor activity, intracellular calcium concentration was measured in confluent cells on coverslips by fura-2 fluorescence using microspectrofluorimetry as previously described (S. Mason et al., Br. J. Pharmacol. 103, 1649 (1991)). Measurement of cell inositol phosphate formation was as described by H. Brown et al., Mol. Pharmacol. 40, 648 (1991), in accordance with known techniques.
(§2) A retrovirus expression system was employed to study the cloned CF/T43 HP2U cDNA in 1321N1 human astrocytoma cells. The effect of extracellular nuceotides on intracellular calcium, as measured by fura-2 fluorescence, was assessed in CF/T43 cells, uninfected 1321N1 cells, and 1321N1 cells infected with retroviral vector containing either the cloned HP2U or no insert (LSN).
To examine the pharmacological specifity of the HP2U clone expressed in 1321N1 cells, concentration-effect curves were generated for nucleotides and structural analogues active at P2X, P2Y and P2U receptors (data not shown). […] These concentration-effect relations are very similar to those reported for heterologously expressed murine P2U (Lustig, et al., supra) and virtually indistinguishable from data (not shown) generated for the endogenous CF/T43 and HT-29 receptors. Clearly, the agonist specifities fit the definition of the P2U receptor.

The test system of experiment [1] is P2T receptor of K562 cells. Briefly: cytoplasmic free calcium (fura-2) in untransfected or vector-transfected K562 cells. As to conditions: untransfected or vector-transfected K562 cells. In kind it is cell-based, human. The source says: Stable and Transient Transfections. To generate stable transfectants expressing the P2U receptor, K562 cells were transfected by electroporation (F. Toneguzzo et al., Mol. Cell. Biol. 6, 703 (1986)) with the neomycin-resistance plasmid pP2R1. pP2R1 is pRc/CMV containing a ~2.4 kb HindIII-NotI fragment of the P2U receptor cDNA, missing the first 6 nucleotides of the 5' untranslated region of the full length cDNA. control cells were stably transfected with pRc/CMV. Cells were sedimented at 200×g for 5 min at room temperature, rinsed once with phosphate-buffered saline (10 mM NaH2 PO4, pH 7.4, 120 mM NaCl, 5 mM KCl), and resuspended in phosphate-buffered saline at a final concentration of 4×10^7 cells/ml. The cells were chilled on ice for 10 min and then transferred in 0.5 ml aliquots to prechilled electroporation cuvettes. DNA (40 μg of pP2R1 linearized with PvuI) was added to the cell suspension, the cells were subjected to a single electrical pulse (1 kV, 25 μF) and the cuvettes were placed on ice. After 10 min, growth medium was added and the cells were incubated at 37° C. Fresh growth medium supplemented with 0.7 mg/ml G418 was added 48 h […], and the cells were incubated for 2 weeks to select for stable transfectants expressing neomycin resistance. Clonal cell lines were then isolated by transferring single cells to individual wells of a 96-well culture plate: each well contained 0.2 ml of conditioned growth medium filtered from K562 stock cultures, 0.2 ml of fresh growth medium, and 0.4 mg/ml G418. The clonal cell lines were cultured for three to four weeks in growth medium containing 0.4 mg/ml G418 and assayed for P2U receptor, the results shown are from one representative clonal cell line.
Cytoplasmic Free Calcium Measurements. Cells were sedimented at 200×g for 5 min at room temperature and washed once with 10 ml of Hepes-bufferedsaline (20 mM Hepes, pH 7.4, 120 mM NaCl, 5 mM KCl, 1 mM MgCl2, and 1 mM CaCl2). Washed cells were suspended in Hepes-buffered saline at 5×10^5 cells/ml, and stored (for up to 4 h) at 37° C. The concentration of cytoplasmic free calcium, [Ca^2+ ]i, was measured by dual-excitation spectrofluorometric analysis of cells loaded with fura-2, a fluorescent probe for calcium.

Experiment [2] deals with histidine-tagged P2U receptor (P2HIS) (Mus musculus, UniProt P35383). Briefly: PIP2 in K562 cells stably expressing P2HIS. In kind it is cell-based, murine. The method, then: Construction and Purification of the Histidine-tagged P2U Receptor (P2HIS). To produce P2HIS, 70 pmoles of the primers CGCACCATTGCCTTGGTAC (SEQ ID NO:3)(which contains a BstXI site) and […] (SEQ ID NO:4) (which contains an EcoRV site, stop codon, and the hexahistidine coding sequence) were incubated with 50 ng of pP2R, 20 nmoles of each dNTP, 1X reaction buffer (20 mM Tris-HCl, pH 8.2, 10 mM KCl, 6 mM (NH4)2 SO4, 1.5 mM MgCl2, and 0.1% Triton X-100), and H2 O to bring the reaction mixture to a 100 μl volume. […] The reaction mixture was overlayed with 50 μl of mineral oil and subjected to 30 PCR cycles (95° C. for 1.5 min, 55° C. for 1.5 min, and 72° C. for 2 min). The PCR product, a single 400 bp band, was subcloned into the unique BstXI-EcoRV restriction site of pP2R to generate pP2HIS. K562 cells with stable P2HIS expression were produced by subcloning the HindIII-NotI restriction fragment of pP2HIS encoding the histidine-taged P2U receptor cDNA into pRC/CMV and transfecting K562 cells as described for pP2R1. The composition of pP2HIS was verified by DNA sequence analysis.

The target of experiment [3] is T1, P2U receptor of CF/T43 cells (Homo sapiens, UniProt P41231).
T1 construct: fura-2 calcium
The experiment can be described thus: intracellular calcium by fura-2 fluorescence in CF/T43 cells (endogenous receptor). In kind it is cell-based. To be noted: for [Ca^2+ ]i response to extracellular nucleotide: 10^-4 M (printed for UTP). The method, then: as §1, §2
(Calcium assays in cells follow changes in intracellular calcium, usually with a dye or a luminescent sensor.)

SMILES strings stand for the structures.

T1 sequence (P41231 whole entry): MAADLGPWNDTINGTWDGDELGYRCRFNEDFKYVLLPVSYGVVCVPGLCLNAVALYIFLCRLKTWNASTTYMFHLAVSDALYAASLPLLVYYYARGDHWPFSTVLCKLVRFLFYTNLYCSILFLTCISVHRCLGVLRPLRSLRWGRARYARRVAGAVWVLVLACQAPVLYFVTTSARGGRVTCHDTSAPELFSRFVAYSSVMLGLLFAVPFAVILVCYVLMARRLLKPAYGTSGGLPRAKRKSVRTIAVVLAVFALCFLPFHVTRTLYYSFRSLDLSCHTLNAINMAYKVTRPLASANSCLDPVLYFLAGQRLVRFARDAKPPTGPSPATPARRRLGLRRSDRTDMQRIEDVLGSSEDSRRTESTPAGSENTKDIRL
Chain of human P2U receptor (P41231 whole entry): as above
Chain of murine P2U receptor (P35383 whole entry): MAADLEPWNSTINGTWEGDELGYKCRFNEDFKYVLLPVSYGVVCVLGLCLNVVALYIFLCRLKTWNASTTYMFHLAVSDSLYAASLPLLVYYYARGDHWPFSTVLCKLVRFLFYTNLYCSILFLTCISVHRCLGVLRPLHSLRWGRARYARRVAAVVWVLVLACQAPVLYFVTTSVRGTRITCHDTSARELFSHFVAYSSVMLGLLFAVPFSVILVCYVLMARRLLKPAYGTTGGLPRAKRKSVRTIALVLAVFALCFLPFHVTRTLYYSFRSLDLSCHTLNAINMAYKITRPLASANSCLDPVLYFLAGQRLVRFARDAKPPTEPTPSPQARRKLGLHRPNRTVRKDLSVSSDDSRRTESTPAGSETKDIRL
Chain of histidine-tagged P2U receptor (P2HIS) (P35383 whole entry): as above

In the case of `Nc1ncnc2c1ncn2[C@@H]1O[C@H](COP(=O)(O)OP(=O)(O)OP(=O)(O)O)[C@@H](O)[C@H]1O` [ATP], on murine P2U receptor, the EC50 was about 1 µM and the “activation of the cloned murine receptor” value is “activated”. At human P2U receptor, the EC50 amounted to 1 µM and the “[Ca^2+ ]i in absence of extracellular Ca^2+” value was “raised [Ca^2+ ]i”. Besides, on human P2U receptor (Ca2+-free and Ca2+-containing media), the “[Ca^2+ ]i response of 1321N1 cells expressing the LHP2USN vector” value is “the same result observed with UTP”. Also, in experiment [1], the “elevation of [Ca^2+ ]i in untransfected or vector-transfected K562 cells” value is “Neither ATP nor UTP elevated [Ca^2+ ]^i”. In addition, the “PIP2 in K562 cells stably expressing P2HIS” value in experiment [2] was “decrease in PIP2”. Also, in experiment [3], the “[Ca^2+ ]i response to extracellular nucleotide” value was “the same result observed with UTP” and the “[Ca^2+ ]i response to extracellular nucleotide in Ca2+-free medium” value is “the same result observed with UTP”.

On to `O=c1ccn([C@@H]2O[C@H](COP(=O)(O)OP(=O)(O)OP(=O)(O)O)[C@@H](O)[C@H]2O)c(=O)[nH]1` [UTP], for which, at murine P2U receptor, the EC50 is about 1 µM and the “activation of the cloned murine receptor” value was “activated”. Moreover, on human P2U receptor, the EC50 amounted to 1.4 µM and the “[Ca^2+ ]i in absence of extracellular Ca^2+” value was “raised [Ca^2+ ]i”. In addition, the “efficacy / effect in concentration-effect curves” value on human P2U receptor (HP2U clone expressed in 1321N1 cells) was “slightly more efficacious”. Further, the “elevation of [Ca^2+ ]i in untransfected or vector-transfected K562 cells” value in experiment [1] is “Neither ATP nor UTP elevated [Ca^2+ ]^i”. Also, the “PIP2 in K562 cells stably expressing P2HIS” value in experiment [2] was “decrease in PIP2”. In experiment [3], the “[Ca^2+ ]i response to extracellular nucleotide” value was “initial sharp increase in [Ca^2+ ]i which relaxed over 1-2 min to a prolonged plateau” and the “[Ca^2+ ]i response to extracellular nucleotide in Ca2+-free medium” value is “sharp increase in [Ca^2+ ]i which returned to baseline without an intervening plateau phase”.
